Reference: US20120230951A1 (priority 2011, published 2012)

Columns and labels:
[1] = test system: GT-1a pRLuc H771b 75 S/I subgenomic replicon cell line; assay: HCV GT-1a replicon luciferase reporter assay; assay type: cell-based; conditions: Hepatitis C virus, GT1A, 72 h, read-out: GT-1a (IC50) (nM)
Summary of the method: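 Huh-7-derived subgenomic replicon cells (GT-1b Con1 2209-23, 5000/well; GT-1a H77 chimera with Con1 NS3 first 75 aa, 3000/well) in 5% FBS DMEM; compounds added 24 h post-plating, 3-fold dilutions, 1% DMSO. Renilla luciferase read after 72 h; EC50 is 50% signal reduction versus untreated, non-linear fit.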

[2] = test system: HCV GT1b replicon (2209-23 cell line, GT-1b Con1 subgenomic replicon in Huh-7); assay: HCV GT1b replicon luciferase reporter assay; assay type: cell-based; conditions: Hepatitis C virus, Huh-7, 2209-23 cells (GT-1b Con1), Renilla luciferase read 72 hours after addition of compounds; for IC50: read-out: GT-1b (IC50)
Excerpt: Determination of compounds HCV GT1b inhibitory replicon activity using the replicon luciferase reporter assay
The 2209-23 cell line was developed at Roche by stable transfection of the hepatoma cell line Huh-7 with a GT-1b Con1 subgenomic bicistronic replicon as previously described. Subgenomic replicon cell line was established in cured Huh7 cells, obtained from R. Bartenschlager (J. Virol. 2003 March; 77 (5):3007-19) The GT-1a H77 subgenomic replicon vector pRLuc H771b 75 S/I, was created by replacing the non structural region of the GT-1b Con1 subgenomic replicon by the one of the H77 strain, except for the first 75 amino acids of the NS3 protein that are from GT-1b Con1 strain. (J. Virol. 2001 77:5352-59) The GT-1a pRLuc H771b 75 S/I subgenomic replicon cell line was established in cured Huh7 cells, obtained from R. Bartenschlager. (J. Virol. 2003 March; 77 (5):3007-19)
All the subgenomic replicon cell lines were cultured in Dulbecco's Modified Eagle Medium (DMEM-Glutamax™-I; Invitrogen Cat #10569-010). The medium was supplemented with 10% Fetal Bovine Serum (Invitrogen Cat #10082-147), 1% penicillin/streptomycin (Mediatech Cat #30-002-CI) and 500 μg/ml of G418 (Mediatech Cat #30-234-CI). Cells were maintained at 37° C. in a humidified 5% CO2 atmosphere.
2209-23 cells were plated at a cell density of 5000 cells per well in 96 well plates (Becton Dickinson, Cat #35 3296). Cells were plated in 90 μl of Dulbecco's Modified Eagle Medium (DMEM-Glutamax™-I), (Invitrogen Cat #10569-010) medium was supplemented with 5% Fetal Bovine Serum (Invitrogen Cat #10082-147), 1% penicillin/streptomycin (Mediatech Cat #30-002-CI). The pRluc H771b 75 S/I cells were plated in 96-well plate at 3000 cells/well in DMEM-Glutamax™-I containing 5% FBS and 1% penicillin/streptomycin in 90 μl final volume. Cells were allowed to equilibrate for 24 hours at 37° C. and 5% CO2 at which time compounds were added. Compounds (or medium as a control) were added 24 hours post-plating in 3 fold dilutions at a final DMSO concentration of 1% in 10 ul volume. Renilla luciferase reporter signal was read 72 hours after addition of compounds using the Renilla Luciferase Assay System (Promega, cat #E2820). EC50 values were defined as the compound concentration at which a 50% reduction in the levels of renilla luciferase reporter was observed as compared to control samples in the absence of compound and was determined by non-linear fitting of compound dose-response data. The EC50 was approximated if maximum percentage inhibition was less than 90% and more than 70%.

Compound | IC50 [1] [nM] | IC50 [2] [nM] | EC50 [2] [nM]
COC(=O)NC(C(=O)N1CCCC1c1ncc(-c2ccc(-c3ccc(-c4cnc([C@@H]5Cc6cc(Br)cc7c6N5C(=O)[C@@H](NC(=O)OC)CC7)[nH]4)cc3)cc2)[nH]1)C(C)C (stereo in doubt) [Compound I-25, {(2S,5S)-9-Bromo-2-[5-(4′-{2-[(R)-1-((R)-2-methoxycarbonylamino-3-methyl-butyryl)-pyrrolidin-2-yl]-3H-imidazol-4-yl}-biphenyl-4-yl)-1H-imidazol-2-yl]-4-oxo-1,2,4,5,6,7-hexahydro-azepino[3,2,1-hi]indol-5-yl}-carbamic acid methyl ester] | 31.2 | 1.21 | 
COC(=O)N[C@H]1CCc2cccc3c2N(C1=O)[C@H](c1nc2ccc(-c4ccc(-c5ccc6nc([C@@H]7CCCN7C(=O)[C@@H](NC(=O)OC)C(C)C)[nH]c6c5)cc4)cc2[nH]1)C3 [Compound I-5, {(2S,5S)-2-[6-(4-{2-[(S)-1-((S)-2-Methoxycarbonylamino-3-methyl-butyryl)-pyrrolidin-2-yl]-3H-benzoimidazol-5-yl}-phenyl)-1H-benzoimidazol-2-yl]-4-oxo-1,2,4,5,6,7-hexahydro-azepino[3,2,1-hi]indol-5-yl}-carbamic acid methyl ester] | 49.8 | 0.093 | 
COC(=O)N[C@H]1CCc2cccc3c2N(C1=O)[C@H](c1nc2ccc(-c4ccc5nc(-c6ccc7nc([C@@H]8CCCN8C(=O)[C@@H](NC(=O)OC)C(C)C)[nH]c7c6)cnc5c4)cc2[nH]1)C3 [Compound I-6] | 17.5 | 0.2 | 
COC(=O)N[C@H]1CCc2cccc3c2N(C1=O)[C@H](c1ncc(-c2ccc(-c4ccc(-c5cnc(C6CC7(CCOCC7)CN6C(=O)[C@@H](NC(=O)OC)C(C)C)[nH]5)cc4)cc2)[nH]1)C3 (stereo partly drawn) [Compound I-9, {(2S,5S)-2-[5-(4′-{2-[2-((S)-2-Methoxycarbonylamino-3-methyl-butyryl)-8-oxa-2-aza-spiro[4.5]dec-3-yl]-3H-imidazol-4-yl}-biphenyl-4-yl)-1H-imidazol-2-yl]-4-oxo-1,2,4,5,6,7-hexahydro-azepino[3,2,1-hi]indol-5-yl}-carbamic acid methyl ester] | 3.36 | 0.03 | 
COC(=O)N[C@H]1CCc2cccc3c2N(C1=O)[C@H](c1nc2ccc(-c4ccc(-c5cnc([C@@H]6CCCN6C(=O)[C@@H](NC(=O)OC)C(C)C)[nH]5)cc4)cc2[nH]1)C3 [Compound I-10, {(2S,5S)-2-[6-(4-{2-[(S)-1-((S)-2-Methoxycarbonylamino-3-methyl-butyryl)-pyrrolidin-2-yl]-3H-imidazol-4-yl}-phenyl)-1H-benzoimidazol-2-yl]-4-oxo-1,2,4,5,6,7-hexahydro-azepino[3,2,1-hi]indol-5-yl}-carbamic acid methyl ester] | 43.3 | 0.1 | 
COC(=O)N[C@H]1CCc2cccc3c2N(C1=O)[C@H](c1nc2ccc(-c4ccc(-c5ccc(-c6cnc([C@@H]7CCCN7C(=O)[C@@H](NC(=O)OC)C(C)C)[nH]6)cc5)cc4)cc2[nH]1)C3 [Compound I-11, {(2S,5S)-2-[6-(4′-{2-[(S)-1-((S)-2-Methoxycarbonylamino-3-methyl-butyryl)-pyrrolidin-2-yl]-3H-imidazol-4-yl}-biphenyl-4-yl)-1H-benzoimidazol-2-yl]-4-oxo-1,2,4,5,6,7-hexahydro-azepino[3,2,1-hi]indol-5-yl}-carbamic methyl ester] | 19.2 | 2.82 | 
COC(=O)N[C@H]1CCc2cccc3c2N(C1=O)[C@H](c1ncc(-c2ccc(-c4ccc(-c5cnc([C@@H]6CCCN7C(=O)CC[C@H](NC(=O)OC)C(=O)N67)[nH]5)cc4)cc2)[nH]1)C3 [Compound I-67] |  |  | 0.528
COC(=O)N[C@H]1CCc2cccc3c2N(C1=O)[C@H](c1nc2ccc(-c4ccc5cc(-c6cnc([C@@H]7CCCN7C(=O)[C@@H](NC(=O)OC)C(C)C)[nH]6)ccc5c4)cc2[nH]1)C3 [Compound I-68] |  |  | 0.062
